Experimental findings from patent US10081624B2, “Heterocyclic compound” (Takeda Pharmaceutical Company Limited, priority 2014, dated 2018) are described below.

The structures appear in SMILES notation.

The target of assay [1] is T1, HDAC1 enzyme (Homo sapiens, UniProt Q13547).
T1 construct: prepared by transducing full length HDAC1 and HDAC6 genes into Sf-9 insect cells; GST; purchased SignalChem; host or cells: Sf-9 insect cells
As to the kind of experiment: HDAC1 enzyme inhibitory assay (HDAC-Glo I/II Assay kit). The format is biochemical. As to conditions: 1 μM test compound; read-out: HDAC1 inhibitory rate (%) (1 μM). The method, then: HDAC1 enzyme and HDAC6 enzyme each prepared by transducing full length HDAC1 and HDAC6 genes into Sf-9 insect cells and purifying by GST affinity column were purchased from SignalChem. Using these enzymes, HDAC1 and/or HDAC6 enzyme inhibitory activities of the compound of the present invention were evaluated. Enzymes were used after preserved at −70° C. HDAC1 or HDAC6 enzyme inhibitory activity of the compound of the present invention was measured using HDAC-Glo™ I/II Assay kit (Promega) according to the following experimental method. The test compound diluted with assay buffer (24 mM Tris-HCl (pH 7.5), 1 mM MgCl2, 0.35 mM KCl, 135 mM NaCl, 0.6 mM Glutathione, 0.01% Tween-20) was added to a 384-well plate by each 2 μL. Then, HDAC1 or HDAC6 enzyme solution diluted with assay buffer was added thereto by each 4 μL, and the plate was incubated at room temperature for 60 min. After incubated, HDAC substrate-Developer solution prepared according to Promega protocol attached to the assay kit was added to the 384-well plate by each 2 μL, and the enzyme reaction was started. After reacting at room temperature for 20 min, luminescence level was measured using plate reader Envision (PerkinElmer). The inhibitory activity of each compound was calculated as a relative activity value when luminescence level in wells without enzyme is considered as 100% inhibition.

In assay [2] the target is T2, HDAC6 enzyme (Homo sapiens, UniProt Q9UBN7).
T2 construct: prepared by transducing full length HDAC1 and HDAC6 genes into Sf-9 insect cells; GST; purchased SignalChem; host or cells: Sf-9 insect cells
T2 sequence (Q9UBN7 1-1215): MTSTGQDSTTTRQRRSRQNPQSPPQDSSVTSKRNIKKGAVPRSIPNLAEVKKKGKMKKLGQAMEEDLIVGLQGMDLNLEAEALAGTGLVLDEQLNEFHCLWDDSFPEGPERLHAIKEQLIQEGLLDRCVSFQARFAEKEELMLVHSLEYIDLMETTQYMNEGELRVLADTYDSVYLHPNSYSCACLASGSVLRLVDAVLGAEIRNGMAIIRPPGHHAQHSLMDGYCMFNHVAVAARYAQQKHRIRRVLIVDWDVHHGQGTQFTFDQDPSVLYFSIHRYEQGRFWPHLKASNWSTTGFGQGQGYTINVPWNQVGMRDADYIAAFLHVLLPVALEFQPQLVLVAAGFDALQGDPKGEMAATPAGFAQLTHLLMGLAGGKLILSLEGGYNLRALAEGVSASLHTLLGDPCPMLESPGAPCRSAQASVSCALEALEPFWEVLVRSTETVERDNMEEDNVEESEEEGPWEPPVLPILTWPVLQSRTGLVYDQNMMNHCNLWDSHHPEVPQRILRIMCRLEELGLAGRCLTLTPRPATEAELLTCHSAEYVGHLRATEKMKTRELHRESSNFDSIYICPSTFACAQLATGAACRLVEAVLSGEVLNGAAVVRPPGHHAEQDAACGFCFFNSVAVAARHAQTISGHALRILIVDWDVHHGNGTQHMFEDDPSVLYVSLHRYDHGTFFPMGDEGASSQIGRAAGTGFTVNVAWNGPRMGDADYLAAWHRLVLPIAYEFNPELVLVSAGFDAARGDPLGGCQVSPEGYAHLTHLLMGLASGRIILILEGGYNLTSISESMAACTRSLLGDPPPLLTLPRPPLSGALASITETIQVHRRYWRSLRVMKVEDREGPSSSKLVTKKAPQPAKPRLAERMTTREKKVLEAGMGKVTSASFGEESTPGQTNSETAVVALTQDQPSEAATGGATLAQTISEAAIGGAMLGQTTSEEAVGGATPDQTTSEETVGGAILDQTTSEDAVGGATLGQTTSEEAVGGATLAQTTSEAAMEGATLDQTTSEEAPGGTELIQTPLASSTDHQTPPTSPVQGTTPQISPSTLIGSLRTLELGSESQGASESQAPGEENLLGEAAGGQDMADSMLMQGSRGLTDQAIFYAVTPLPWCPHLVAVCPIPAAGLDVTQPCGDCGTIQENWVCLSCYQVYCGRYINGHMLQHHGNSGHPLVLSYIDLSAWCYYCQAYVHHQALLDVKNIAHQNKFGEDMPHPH
In words: HDAC6 enzyme inhibitory assay (HDAC-Glo I/II Assay kit). The format is biochemical. As to conditions: 1 μM test compound; read-out: HDAC6 inhibitory rate (%) (1 μM). An outline of the steps: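 Sf-9-expressed GST-purified full-length HDAC1/HDAC6; cpd + enzyme 60 min RT, 24 mM Tris-HCl pH 7.5, 135 mM NaCl, 0.6 mM glutathione, 0.01% Tween-20; substrate-developer 20 min RT; luminescence; no-enzyme wells = 100% inhibition.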

T1 sequence (Q13547 whole entry): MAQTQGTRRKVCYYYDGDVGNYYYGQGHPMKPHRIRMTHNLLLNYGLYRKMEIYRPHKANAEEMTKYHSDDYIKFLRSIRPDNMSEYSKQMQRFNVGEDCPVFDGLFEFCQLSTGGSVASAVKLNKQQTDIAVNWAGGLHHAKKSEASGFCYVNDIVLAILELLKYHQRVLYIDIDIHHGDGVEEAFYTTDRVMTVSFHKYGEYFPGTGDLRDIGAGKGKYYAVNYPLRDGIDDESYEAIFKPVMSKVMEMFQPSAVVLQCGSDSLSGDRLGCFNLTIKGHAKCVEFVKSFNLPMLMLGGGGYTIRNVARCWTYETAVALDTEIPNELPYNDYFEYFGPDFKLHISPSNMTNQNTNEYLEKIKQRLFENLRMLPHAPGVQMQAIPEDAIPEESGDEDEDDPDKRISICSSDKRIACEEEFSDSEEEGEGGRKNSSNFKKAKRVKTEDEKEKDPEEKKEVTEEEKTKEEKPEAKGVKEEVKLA

With `O=C(NCC1COCCN1C(=O)c1ccccc1N1CCOCC1)c1ccc(-c2noc(C(F)(F)F)n2)cc1` (stereo in doubt) [Example 118, N-(((3R)-4-(2-(morpholin-4-yl)benzoyl)morpholin-3-yl)methyl)-4-(5-(trifluoromethyl)-1,2,4-oxadiazol-3-yl)benzamide], the inhibition at 1 µM in assay [1] is 17%; in assay [2], 97%.

Consider `O=C(NCC1COCCN1C(=O)c1cc(F)c(F)c(F)c1)c1ccc(-c2noc(C(F)(F)F)n2)cc1` (stereo in doubt) [Example 119, N-(((3R)-4-(3,4,5-trifluorobenzoyl)morpholin-3-yl)methyl)-4-(5-(trifluoromethyl)-1,2,4-oxadiazol-3-yl)benzamide], for which the inhibition at 1 µM in assay [1] came out at 11%; in assay [2] it was 97%.

`O=C(NCC1COCCN1C(=O)c1ccccc1)c1ccc(-c2noc(C(F)(F)F)n2)cc1` (stereo not shown) [Example 1, N-((4-benzoylmorpholin-3-yl)methyl)-4-(5-(trifluoromethyl)-1,2,4-oxadiazol-3-yl)benzamide]: the results for the inhibition at 1 µM in assay [1] and in assay [2] were 22% and 98%, respectively.

In the case of `O=C(NCC1COCCN1C(=O)c1ccccc1F)c1ccc(-c2noc(C(F)(F)F)n2)cc1` (stereo not shown) [Example 3], the inhibition at 1 µM in assay [1] was 19%; in assay [2] it was 99%.

On to `O=C(NCC1COCCN1C(=O)c1cccc(F)c1)c1ccc(-c2noc(C(F)(F)F)n2)cc1` (stereo not shown) [Example 4, N-((4-(3-fluorobenzoyl)morpholin-3-yl)methyl)-4-(5-(trifluoromethyl)-1,2,4-oxadiazol-3-yl)benzamide], for which the inhibition at 1 µM was determined as 18% in assay [1] and 100% in assay [2].

Turning to `O=C(NCC1COCCN1C(=O)c1ccc(F)cc1)c1ccc(-c2noc(C(F)(F)F)n2)cc1` (stereo not shown) [Example 5, N-((4-(4-fluorobenzoyl)morpholin-3-yl)methyl)-4-(5-(trifluoromethyl)-1,2,4-oxadiazol-3-yl)benzamide], the inhibition at 1 µM in assay [1] was 21%; in assay [2], 99%.

Regarding `O=C(NCC1COCCN1C(=O)c1ccccc1Cl)c1ccc(-c2noc(C(F)(F)F)n2)cc1` (stereo not shown) [Example 6, N-((4-(2-chlorobenzoyl)morpholin-3-yl)methyl)-4-(5-(trifluoromethyl)-1,2,4-oxadiazol-3-yl)benzamide], the values for the inhibition at 1 µM in assay [1] and in assay [2] were 22% and 111%, respectively.

Consider `O=C(NCC1COCCN1C(=O)c1cccc(Cl)c1)c1ccc(-c2noc(C(F)(F)F)n2)cc1` (stereo not shown) [Example 7, N-((4-(3-chlorobenzoyl)morpholin-3-yl)methyl)-4-(5-(trifluoromethyl)-1,2,4-oxadiazol-3-yl)benzamide], for which the inhibition at 1 µM in assay [1] turned out to be 24%; in assay [2], 101%.

For `O=C(NCC1COCCN1C(=O)c1ccc(Cl)cc1)c1ccc(-c2noc(C(F)(F)F)n2)cc1` (stereo not shown) [Example 8], the values for the inhibition at 1 µM in assay [1] and in assay [2] were 33% and 97%, respectively.

`Cc1ccccc1C(=O)N1CCOCC1CNC(=O)c1ccc(-c2noc(C(F)(F)F)n2)cc1` (stereo not shown) [Example 9, N-((4-(2-methylbenzoyl)morpholin-3-yl)methyl)-4-(5-(trifluoromethyl)-1,2,4-oxadiazol-3-yl)benzamide]: the inhibition at 1 µM came out at 21% in assay [1] and 99% in assay [2].

`Cc1cccc(C(=O)N2CCOCC2CNC(=O)c2ccc(-c3noc(C(F)(F)F)n3)cc2)c1` (stereo not shown) [Example 10, N-((4-(3-methylbenzoyl)morpholin-3-yl)methyl)-4-(5-(trifluoromethyl)-1,2,4-oxadiazol-3-yl)benzamide]: the values for the inhibition at 1 µM in assay [1] and in assay [2] were 18% and 104%, respectively.

With `Cc1ccc(C(=O)N2CCOCC2CNC(=O)c2ccc(-c3noc(C(F)(F)F)n3)cc2)cc1` (stereo not shown) [Example 11, N-((4-(4-methylbenzoyl)morpholin-3-yl)methyl)-4-(5-(trifluoromethyl)-1,2,4-oxadiazol-3-yl)benzamide], the inhibition at 1 µM in assay [1] worked out at 21%; in assay [2], 99%.

Regarding `O=C(NCC1COCCN1C(=O)c1ccccn1)c1ccc(-c2noc(C(F)(F)F)n2)cc1` (stereo not shown) [Example 12, N-((4-(pyridin-2-ylcarbonyl)morpholin-3-yl)methyl)-4-(5-(trifluoromethyl)-1,2,4-oxadiazol-3-yl)benzamide], the inhibition at 1 µM in assay [1] is 7%; in assay [2], 98%.

`O=C(NCC1COCCN1C(=O)c1cccnc1)c1ccc(-c2noc(C(F)(F)F)n2)cc1` (stereo not shown) [Example 13, N-((4-(pyridin-3-ylcarbonyl)morpholin-3-yl)methyl)-4-(5-(trifluoromethyl)-1,2,4-oxadiazol-3-yl)benzamide]: the inhibition at 1 µM in assay [1] came to 13%; in assay [2] it was 97%.

For `O=C(NCC1COCCN1C(=O)c1ccncc1)c1ccc(-c2noc(C(F)(F)F)n2)cc1` (stereo not shown) [Example 14, N-((4-isonicotinoylmorpholin-3-yl)methyl)-4-(5-(trifluoromethyl)-1,2,4-oxadiazol-3-yl)benzamide], the inhibition at 1 µM in assay [1] amounted to 20%; in assay [2], 98%.

As for `O=C(NCC1COCCN1C(=O)c1cccs1)c1ccc(-c2noc(C(F)(F)F)n2)cc1` (stereo not shown) [Example 15, N-((4-(2-thienylcarbonyl)morpholin-3-yl)methyl)-4-(5-(trifluoromethyl)-1,2,4-oxadiazol-3-yl)benzamide], the results for the inhibition at 1 µM in assay [1] and in assay [2] were 20% and 98%, respectively.

Turning to `Cn1nc(C(=O)N2CCOCC2CNC(=O)c2ccc(-c3noc(C(F)(F)F)n3)cc2)c2ccccc21` (stereo not shown) [Example 18, N-((4-((1-methyl-1H-indazol-3-yl)carbonyl)morpholin-3-yl)methyl)-4-(5-(trifluoromethyl)-1,2,4-oxadiazol-3-yl)benzamide], the inhibition at 1 µM in assay [1] amounted to 9%; in assay [2], 98%.

Turning to `O=C(NCC1COCCN1C(=O)c1cc2ccccc2o1)c1ccc(-c2noc(C(F)(F)F)n2)cc1` (stereo not shown) [Example 19, N-((4-(1-benzofuran-2-ylcarbonyl)morpholin-3-yl)methyl)-4-(5-(trifluoromethyl)-1,2,4-oxadiazol-3-yl)benzamide], the values for the inhibition at 1 µM in assay [1] and in assay [2] were 24% and 98%, respectively.

Turning to `O=C(NCC1COCCN1C(=O)c1ccc2nccn2c1)c1ccc(-c2noc(C(F)(F)F)n2)cc1` (stereo not shown) [Example 20, N-((4-(imidazo[1,2-a]pyridin-6-ylcarbonyl)morpholin-3-yl)methyl)-4-(5-(trifluoromethyl)-1,2,4-oxadiazol-3-yl)benzamide], the inhibition at 1 µM is 20% in assay [1] and 99% in assay [2].

`O=C(NCC1COCCN1C(=O)Cc1cccs1)c1ccc(-c2noc(C(F)(F)F)n2)cc1` (stereo not shown) [Example 21, N-((4-(2-thienylacetyl)morpholin-3-yl)methyl)-4-(5-(trifluoromethyl)-1,2,4-oxadiazol-3-yl)benzamide]: the results for the inhibition at 1 µM in assay [1] and in assay [2] were 28% and 97%, respectively.
